From patent publication US20050239806A1, “Pyrrolopyrimidine derivatives and analogs and their use in the treatment and prevention of diseases” (Ambit Biosciences Corporation, priority 2004, published 2005)

Legend:
[1] = target: T1, EGFR (tyrosine 1173 phosphorylation) in A431 cells (Homo sapiens, UniProt P00533); assay: EGFR Autophosphorylation Inhibition Assay in Epidermoid Carcinoma Cell Line A431; assay type: cell-based; settings: EGF-induced phosphorylation of tyrosine 1173
T1 construct: endogenous in cells; host or cells: A431
T1 sequence (P00533 25-1210): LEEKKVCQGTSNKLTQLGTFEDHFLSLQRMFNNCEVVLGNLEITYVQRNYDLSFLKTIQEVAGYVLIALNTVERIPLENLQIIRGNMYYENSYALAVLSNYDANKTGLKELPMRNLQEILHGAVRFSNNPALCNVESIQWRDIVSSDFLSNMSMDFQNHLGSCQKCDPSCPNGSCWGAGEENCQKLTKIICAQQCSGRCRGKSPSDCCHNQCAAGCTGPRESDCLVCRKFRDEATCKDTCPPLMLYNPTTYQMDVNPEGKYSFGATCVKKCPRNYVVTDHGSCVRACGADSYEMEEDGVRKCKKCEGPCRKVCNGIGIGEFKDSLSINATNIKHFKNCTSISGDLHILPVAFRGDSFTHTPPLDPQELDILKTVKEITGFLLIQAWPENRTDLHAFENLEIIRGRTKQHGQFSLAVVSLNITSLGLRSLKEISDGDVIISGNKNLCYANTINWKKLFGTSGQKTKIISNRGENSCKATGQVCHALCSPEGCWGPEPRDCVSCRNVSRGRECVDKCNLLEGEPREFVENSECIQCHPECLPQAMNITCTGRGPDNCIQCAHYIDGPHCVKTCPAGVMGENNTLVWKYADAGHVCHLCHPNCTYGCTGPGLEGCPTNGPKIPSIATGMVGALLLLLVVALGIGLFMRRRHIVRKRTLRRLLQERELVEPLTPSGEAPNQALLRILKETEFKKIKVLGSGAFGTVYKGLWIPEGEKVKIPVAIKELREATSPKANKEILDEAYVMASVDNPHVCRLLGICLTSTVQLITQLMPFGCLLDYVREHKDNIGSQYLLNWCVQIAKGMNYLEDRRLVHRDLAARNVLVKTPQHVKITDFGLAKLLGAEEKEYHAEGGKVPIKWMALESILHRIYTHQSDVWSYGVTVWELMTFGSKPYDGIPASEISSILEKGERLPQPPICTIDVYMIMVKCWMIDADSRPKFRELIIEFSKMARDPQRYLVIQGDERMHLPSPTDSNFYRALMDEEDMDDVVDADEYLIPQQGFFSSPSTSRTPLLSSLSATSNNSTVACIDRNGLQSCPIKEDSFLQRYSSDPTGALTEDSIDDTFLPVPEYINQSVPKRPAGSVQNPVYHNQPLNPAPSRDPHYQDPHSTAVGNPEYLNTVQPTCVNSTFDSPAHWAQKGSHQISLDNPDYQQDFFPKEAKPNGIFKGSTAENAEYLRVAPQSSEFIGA
Procedure: (§1) Tyrosine 1173 is a major autophosphorylation site resulting from activation of EGFR by epidermal growth factor (EGF). To determine the capacity of a compound to inhibit this phosphorylation activity of EGFR upon itself, the following methodology was used: 4×10^4 A431 cells/well in a 96-well culture plate or 3.6×10^5 A549 cells/well in a 24-well culture plate were cultured overnight at 37° C. in 5% CO2 in low serum culture medium (DMEM supplemented with 0.5% fetal calf serum, 4.500 mg/L glucose and 100 units/ml penicillin-streptomycin). After 16 hours, the cells were pre-incubated in eight serial 3-fold dilutions of test compound (3.3 μM-0.0017 μM) in addition to vehicle control (final concentration on DMSO vehicle was 1%) for two hours. Cells were stimulated by the addition of 5 ng/ml of EGF for five minutes. Cells were then washed with cold phosphate buffered saline (PBS), and incubated for 30 minutes at 4° C. in lysis buffer. Subsequently, the samples were centrifuged at 6000× RCF for 15 minutes, and the level of phosphorylation of EGFR tyrosine 1173 was measured using a sandwich enzyme-linked immunosorbent assay following the manufacturer's recommended protocols (Biosource, Camarillo, Calif.). Total EGFR levels were also measured in the same manner to control for protein level differences. The reported values are those concentrations of compound required to inhibit EGF-induced phosphorylation of tyrosine 1173 by 50%.

[2] = target: T2, EGFR (L747-E749del, A750P) (Homo sapiens, UniProt P00533, A750P/DEL747-749); assay: Binding of mutant-EGFR (phage-displayed kinase competition binding)
T2 construct: made in house
Text: (§2) Methods for measuring binding affinities for interactions between small molecules and kinases including FLT3, c-KIT, ABL([…]) [a.k.a. ABL([…])], VEGFR-2 (a.k.a. KDR), and EGFR are described in detail in U.S. application Ser. No. 10/873,835, which is incorporated by reference herein in its entirety. The components of the assays include human kinases expressed as fusions to T7 bacteriophage particles and immobilized ligands that bind to the ATP site of the kinases. […] If the test compound binds the kinase it competes with the immobilized ligand and prevents binding to the solid support. […] The results are read out by quantitating the amount of fusion protein bound to the solid support, which is accomplished by either traditional phage plaque assays or by quantitative PCR (qPCR) using the phage genome as a template. […] The concentration of test molecule that reduces the number of phage bound to the solid support by 50% is equal to the Kd for the interaction between the kinase and the test molecule. Typically, data are collected for twelve concentrations of test compound and, the resultant binding curve is fit to a non-cooperative binding isotherm to calculate Kd. Described in the exemplary assays below is data from binding with varying kinases. […] The term “ND” represents non-determined values. […] The Kd for the interaction between the soluble compound (competitor) molecule and EGFR is equal to the concentration of soluble competitor molecule that causes a 50% reduction in the number of phage recovered in the eluate compared to a control sample lacking soluble competitor.

EGFR (L861Q) = target: T3, EGFR (L861Q) (Homo sapiens, UniProt P00533, L861Q); assay: as above
T3 construct: made in house
Text: as §2

EGFR (E746-A750del) = target: T4, EGFR (E746-A750del) (Homo sapiens, UniProt P00533, DEL746-750); assay: as above
T4 construct: made in house
T4 sequence (P00533 with tags, fused parts or gaps DEL746-750): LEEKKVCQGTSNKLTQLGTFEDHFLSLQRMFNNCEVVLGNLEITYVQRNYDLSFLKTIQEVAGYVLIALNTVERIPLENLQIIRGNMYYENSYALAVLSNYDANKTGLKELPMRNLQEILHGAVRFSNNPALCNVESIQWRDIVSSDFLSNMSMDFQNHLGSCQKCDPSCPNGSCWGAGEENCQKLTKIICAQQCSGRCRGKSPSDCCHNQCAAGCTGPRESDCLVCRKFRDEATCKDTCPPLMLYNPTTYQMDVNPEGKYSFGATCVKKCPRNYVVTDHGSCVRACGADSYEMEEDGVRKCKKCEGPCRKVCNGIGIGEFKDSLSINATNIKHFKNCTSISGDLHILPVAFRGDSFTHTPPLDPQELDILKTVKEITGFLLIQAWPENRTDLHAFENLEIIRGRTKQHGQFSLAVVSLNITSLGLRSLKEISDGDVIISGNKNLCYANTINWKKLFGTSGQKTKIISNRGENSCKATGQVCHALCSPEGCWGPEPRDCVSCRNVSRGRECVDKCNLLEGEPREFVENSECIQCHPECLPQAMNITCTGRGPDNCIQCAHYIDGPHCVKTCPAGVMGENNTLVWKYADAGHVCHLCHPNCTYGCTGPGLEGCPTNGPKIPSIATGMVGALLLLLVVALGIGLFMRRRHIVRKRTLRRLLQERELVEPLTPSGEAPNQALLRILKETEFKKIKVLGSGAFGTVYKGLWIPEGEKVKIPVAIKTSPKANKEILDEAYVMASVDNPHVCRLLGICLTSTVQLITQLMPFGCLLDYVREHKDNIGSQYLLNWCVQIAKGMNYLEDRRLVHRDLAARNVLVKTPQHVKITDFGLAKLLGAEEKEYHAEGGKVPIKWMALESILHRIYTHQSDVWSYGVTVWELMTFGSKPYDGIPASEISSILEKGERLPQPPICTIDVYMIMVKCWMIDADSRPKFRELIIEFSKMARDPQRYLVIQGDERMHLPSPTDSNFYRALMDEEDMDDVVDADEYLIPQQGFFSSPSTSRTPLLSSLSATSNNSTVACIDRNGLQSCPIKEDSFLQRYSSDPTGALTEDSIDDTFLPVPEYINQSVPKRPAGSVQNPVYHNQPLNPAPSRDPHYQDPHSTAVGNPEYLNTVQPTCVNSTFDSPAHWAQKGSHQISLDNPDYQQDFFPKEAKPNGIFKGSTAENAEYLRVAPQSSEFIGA
Text: as §2

EGFR (G719S) = target: T5, EGFR (G719S) (Homo sapiens, UniProt P00533, G719S); assay: as above
T5 construct: made in house
Text: as §2

[3] = target: T6, EGFR (L747-T751del, Sins) (Homo sapiens, UniProt P00533, DEL747-750/T751S); assay: as above
T6 construct: made in house
T6 sequence (P00533 with tags, fused parts or gaps DEL747-750/T751S limits assumed): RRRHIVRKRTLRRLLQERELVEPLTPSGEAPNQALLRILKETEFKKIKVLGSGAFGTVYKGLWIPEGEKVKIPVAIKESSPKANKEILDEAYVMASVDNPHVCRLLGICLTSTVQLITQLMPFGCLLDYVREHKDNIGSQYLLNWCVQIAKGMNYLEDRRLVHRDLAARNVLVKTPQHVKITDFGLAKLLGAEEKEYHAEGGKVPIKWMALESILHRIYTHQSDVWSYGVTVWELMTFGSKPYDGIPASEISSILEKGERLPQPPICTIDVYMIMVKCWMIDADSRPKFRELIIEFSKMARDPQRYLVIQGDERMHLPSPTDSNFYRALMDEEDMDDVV
Text: as §2

[4] = target: T7, EGFR (L747-T752del, P753S) (Homo sapiens, UniProt P00533, DEL747-752/P753S); assay: as above
T7 construct: made in house
Text: as §2

EGFR (S752-1759del) = target: T8, EGFR (S752-1759del) (Homo sapiens, UniProt P00533, DEL752-759); assay: as above
T8 construct: made in house
Text: as §2

EGFR (G719C) = target: T9, EGFR (G719C) (Homo sapiens, UniProt P00533, G719C); assay: as above
T9 construct: made in house
Text: as §2

EGFR (L858R) = target: T10, EGFR (L858R) (Homo sapiens, UniProt P00533, L858R); assay: as above
T10 construct: made in house
T10 sequence (P00533 25-1210 L858R): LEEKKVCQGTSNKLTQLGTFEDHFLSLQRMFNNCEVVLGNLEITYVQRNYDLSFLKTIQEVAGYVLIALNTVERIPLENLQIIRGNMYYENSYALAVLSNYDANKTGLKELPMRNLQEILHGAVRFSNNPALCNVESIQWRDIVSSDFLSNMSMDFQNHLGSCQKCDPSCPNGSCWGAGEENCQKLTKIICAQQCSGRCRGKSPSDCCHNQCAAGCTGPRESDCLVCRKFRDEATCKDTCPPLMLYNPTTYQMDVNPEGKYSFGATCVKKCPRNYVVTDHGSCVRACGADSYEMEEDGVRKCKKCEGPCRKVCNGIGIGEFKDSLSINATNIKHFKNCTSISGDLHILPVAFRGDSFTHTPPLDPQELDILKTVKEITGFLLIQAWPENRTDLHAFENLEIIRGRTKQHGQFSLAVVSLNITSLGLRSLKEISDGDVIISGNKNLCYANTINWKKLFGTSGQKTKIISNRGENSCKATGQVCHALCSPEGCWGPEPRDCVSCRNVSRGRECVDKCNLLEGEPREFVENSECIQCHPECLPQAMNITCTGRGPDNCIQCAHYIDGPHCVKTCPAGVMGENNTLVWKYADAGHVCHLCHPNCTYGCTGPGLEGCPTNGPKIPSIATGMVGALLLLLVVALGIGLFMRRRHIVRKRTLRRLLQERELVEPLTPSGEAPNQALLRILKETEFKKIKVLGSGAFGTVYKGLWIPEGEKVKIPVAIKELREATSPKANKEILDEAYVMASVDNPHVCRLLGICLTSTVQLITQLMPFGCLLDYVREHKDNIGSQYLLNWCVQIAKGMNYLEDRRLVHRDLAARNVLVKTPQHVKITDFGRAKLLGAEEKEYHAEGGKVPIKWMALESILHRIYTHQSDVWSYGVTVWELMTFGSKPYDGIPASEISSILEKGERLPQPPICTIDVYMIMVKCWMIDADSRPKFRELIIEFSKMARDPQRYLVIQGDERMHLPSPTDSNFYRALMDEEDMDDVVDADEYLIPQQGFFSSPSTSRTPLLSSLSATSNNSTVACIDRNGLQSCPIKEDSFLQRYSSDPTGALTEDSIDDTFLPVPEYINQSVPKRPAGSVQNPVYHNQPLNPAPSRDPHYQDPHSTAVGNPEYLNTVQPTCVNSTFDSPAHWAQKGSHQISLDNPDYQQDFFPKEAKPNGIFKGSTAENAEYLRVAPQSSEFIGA
Text: as §2

[5] = target: T11, human EGFR (wildtype), EGFR(DKIN) (Homo sapiens, UniProt P00533); assay: Binding of wildtype-EGFR (T7 phage-displayed kinase competition binding)
T11 construct: Kd for EGFR(DKIN); made in house
Text: as §2

[6] = target: T12, EGFR (tyrosine 1173 phosphorylation) in Lung Cancer Cell Line A459 (Homo sapiens, UniProt P00533); assay: EGFR Autophosphorylation Inhibition Assay in Lung Cancer Cell Line A459; assay type: cell-based; settings: EGF-induced phosphorylation of tyrosine 1173
T12 construct: endogenous in cells
T12 sequence (P00533 25-1210): as the sequence (P00533 25-1210) above
Procedure: as §1

Compound	IC50 [1] [nM]	Kd [2] [nM]	Kd (EGFR (L861Q)) [nM]	Kd (EGFR (E746-A750del)) [nM]	Kd (EGFR (G719S)) [nM]	Kd [3] [nM]	Kd [4] [nM]	Kd (EGFR (S752-1759del)) [nM]	Kd (EGFR (G719C)) [nM]	Kd (EGFR (L858R)) [nM]	Kd [5] [nM]	IC50 [6] [nM]
Clc1ccc(Sc2ncnc3c2[nH]c2ccccc23)cc1Cl [Compound K5]	100 to 1000	< 100	100 to 1000	< 100	< 100	< 100	< 100	< 100	< 100	< 100	< 100	100 to 1000
Oc1ccc(-c2cc3c(Oc4cccc(Br)c4)ncnc3[nH]2)cc1 [Compound E3]	< 100	< 100	< 100	< 100	< 100	< 100	< 100	< 100	< 100	< 100	< 100	100 to 1000
Oc1ccc(-c2cc3c(Sc4ccccc4)ncnc3[nH]2)cc1 [Compound L2]	< 100	< 100	< 100	< 100	< 100	< 100	< 100	< 100	< 100	< 100	< 100	100 to 1000
